Reference: ChEMBL document CHEMBL3352173, “Optimization of pyrrolamide topoisomerase II inhibitors toward identification of an antibacterial clinical candidate (AZD5099)” (J Med Chem, 2014)
Converted amounts (≈) assume the structure as drawn.

Columns and labels:
Enterococcus faecalis = test: Antimicrobial activity against Enterococcus faecalis by broth microdilution/CLSI method; format: functional
[1] = Dissociation constant, pKa of the compound; format: physicochemical
Staphylococcus aureus [2] = test: Antimicrobial activity against 2 times drug resistance selected Staphylococcus aureus ARC2381-3F by broth microdilution/CLSI method; format: functional
[3] = Bioavailability in CD1 mouse at 10 mg/kg, […]; format: ADME, organism-based; details: in vivo
[4] = Bioavailability in Wistar rat at 10 mg/kg, […]; format: ADME, organism-based; details: in vivo
[5] = Clearance in TR-negative Wistar rat at 10 mg/kg, iv; format: ADME, organism-based; parameters: dose 10 mg/kg, route intravenous; details: in vivo
Staphylococcus aureus [6] = test: Ratio of MIC for 2 times drug resistance selected Staphylococcus aureus ARC1692-2F to MIC for Staphylococcus aureus ARC1692; format: functional
[7] = Clearance in rat at 10 mg/kg, iv; format: ADME, organism-based; parameters: dose 10 mg/kg, route intravenous; details: in vivo
[8] = biological target: ATP-binding cassette sub-family C member 2 (Rattus norvegicus, UniProt Q63120); test: Stimulation of ATPase activity of rat Mrp2 assessed as inorganic phosphate
Chain of ATP-binding cassette sub-family C member 2 (Rattus norvegicus, UniProt Q63120) (Q63120 whole entry): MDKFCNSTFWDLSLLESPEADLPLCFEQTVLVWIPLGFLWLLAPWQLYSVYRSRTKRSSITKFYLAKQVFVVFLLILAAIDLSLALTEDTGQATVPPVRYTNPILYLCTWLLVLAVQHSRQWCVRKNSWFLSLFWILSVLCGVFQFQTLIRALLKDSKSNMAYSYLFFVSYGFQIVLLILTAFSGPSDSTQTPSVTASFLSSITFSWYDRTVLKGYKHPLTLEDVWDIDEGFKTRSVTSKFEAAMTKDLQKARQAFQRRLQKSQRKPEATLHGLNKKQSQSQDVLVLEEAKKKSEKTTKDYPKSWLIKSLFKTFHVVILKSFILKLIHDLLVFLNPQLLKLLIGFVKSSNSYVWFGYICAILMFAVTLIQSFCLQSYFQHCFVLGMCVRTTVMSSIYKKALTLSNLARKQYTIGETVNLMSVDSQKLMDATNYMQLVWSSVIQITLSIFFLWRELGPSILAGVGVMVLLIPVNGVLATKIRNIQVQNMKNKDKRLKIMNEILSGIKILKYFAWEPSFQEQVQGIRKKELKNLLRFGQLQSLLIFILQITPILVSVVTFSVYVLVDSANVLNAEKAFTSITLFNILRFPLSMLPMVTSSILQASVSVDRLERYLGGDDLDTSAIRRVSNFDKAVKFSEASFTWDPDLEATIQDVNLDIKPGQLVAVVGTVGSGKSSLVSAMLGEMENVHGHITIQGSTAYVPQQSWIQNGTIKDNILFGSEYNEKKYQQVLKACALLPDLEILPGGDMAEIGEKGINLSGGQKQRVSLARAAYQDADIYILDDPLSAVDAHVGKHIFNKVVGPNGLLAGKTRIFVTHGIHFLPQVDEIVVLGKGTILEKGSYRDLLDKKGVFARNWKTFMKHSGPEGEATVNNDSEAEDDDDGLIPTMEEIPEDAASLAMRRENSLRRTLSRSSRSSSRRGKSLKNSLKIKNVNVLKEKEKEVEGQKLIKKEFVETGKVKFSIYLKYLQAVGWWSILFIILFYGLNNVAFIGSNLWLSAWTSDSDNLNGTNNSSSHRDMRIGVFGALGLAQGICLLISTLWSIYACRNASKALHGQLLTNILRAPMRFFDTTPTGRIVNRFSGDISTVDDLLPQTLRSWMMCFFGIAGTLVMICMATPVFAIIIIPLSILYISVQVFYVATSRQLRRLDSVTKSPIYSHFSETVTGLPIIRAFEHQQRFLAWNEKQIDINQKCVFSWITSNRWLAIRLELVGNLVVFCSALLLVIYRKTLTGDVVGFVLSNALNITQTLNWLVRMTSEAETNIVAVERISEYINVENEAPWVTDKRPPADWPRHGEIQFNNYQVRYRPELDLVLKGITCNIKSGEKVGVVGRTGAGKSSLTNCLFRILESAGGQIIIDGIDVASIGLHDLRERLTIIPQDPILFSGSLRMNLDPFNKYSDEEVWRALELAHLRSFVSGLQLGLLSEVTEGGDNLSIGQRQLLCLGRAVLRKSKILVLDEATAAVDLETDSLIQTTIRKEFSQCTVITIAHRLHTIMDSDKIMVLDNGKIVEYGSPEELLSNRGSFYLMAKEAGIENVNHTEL

Staphylococcus aureus [9] = test: Ratio of MIC for 2 times drug resistance selected Staphylococcus aureus ARC2381-3F to MIC for Staphylococcus aureus ARC2381; format: functional
Streptococcus pyogenes = test: Antimicrobial activity against Streptococcus pyogenes by broth microdilution/CLSI method; format: functional
Staphylococcus aureus [10] = test: Ratio of MIC for 2 times drug resistance selected Staphylococcus aureus ARC516-1F to MIC for Staphylococcus aureus ARC516; format: functional
Cytochrome P450 1A2 = biological target: T1, Cytochrome P450 1A2 (Homo sapiens, UniProt P05177); test: Inhibition of human CYP1A2 at 50 uM; format: ADME
T1 sequence (P05177 whole entry): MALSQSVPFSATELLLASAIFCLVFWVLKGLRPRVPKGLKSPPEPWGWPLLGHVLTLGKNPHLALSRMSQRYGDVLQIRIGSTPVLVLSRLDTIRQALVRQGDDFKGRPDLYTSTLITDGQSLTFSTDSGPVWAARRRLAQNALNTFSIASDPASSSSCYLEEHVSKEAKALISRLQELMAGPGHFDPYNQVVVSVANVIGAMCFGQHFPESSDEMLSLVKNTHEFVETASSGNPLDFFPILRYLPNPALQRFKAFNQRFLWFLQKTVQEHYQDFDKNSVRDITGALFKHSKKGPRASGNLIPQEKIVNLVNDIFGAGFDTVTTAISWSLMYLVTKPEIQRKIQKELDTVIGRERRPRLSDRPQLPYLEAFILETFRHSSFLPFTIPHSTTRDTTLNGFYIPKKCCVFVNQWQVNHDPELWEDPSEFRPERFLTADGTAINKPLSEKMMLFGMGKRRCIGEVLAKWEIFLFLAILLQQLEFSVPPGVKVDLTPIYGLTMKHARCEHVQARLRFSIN

Streptococcus pneumoniae = test: Antibacterial activity against Streptococcus pneumoniae by broth microdilution/CLSI method; format: functional; details: Streptococcus pneumoniae; read-out: MIC
Cytochrome P450 3A4 = Cytochrome P450 3A4 (Homo sapiens, UniProt P08684); test: Inhibition of human CYP3A4 at 50 uM; format: ADME
Chain of Cytochrome P450 3A4 (P08684 whole entry): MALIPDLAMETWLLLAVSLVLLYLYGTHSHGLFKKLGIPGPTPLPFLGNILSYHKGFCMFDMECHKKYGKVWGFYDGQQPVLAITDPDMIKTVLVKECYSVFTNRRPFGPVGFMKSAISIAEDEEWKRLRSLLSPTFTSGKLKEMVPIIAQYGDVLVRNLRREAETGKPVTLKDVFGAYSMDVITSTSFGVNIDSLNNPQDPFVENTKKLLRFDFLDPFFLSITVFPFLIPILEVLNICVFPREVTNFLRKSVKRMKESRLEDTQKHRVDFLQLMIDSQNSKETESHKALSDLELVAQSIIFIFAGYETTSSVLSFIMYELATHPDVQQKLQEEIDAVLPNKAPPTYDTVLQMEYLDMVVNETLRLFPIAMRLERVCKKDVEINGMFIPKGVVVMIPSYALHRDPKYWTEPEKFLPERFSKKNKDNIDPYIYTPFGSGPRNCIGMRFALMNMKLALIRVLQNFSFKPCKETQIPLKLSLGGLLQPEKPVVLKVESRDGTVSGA

[11] = biological target: ATP-binding cassette sub-family C member 2 (Homo sapiens, UniProt Q92887); test: Stimulation of ATPase activity of human MRP2 assessed as inorganic phosphate
Chain of ATP-binding cassette sub-family C member 2 (Homo sapiens, UniProt Q92887) (Q92887 whole entry): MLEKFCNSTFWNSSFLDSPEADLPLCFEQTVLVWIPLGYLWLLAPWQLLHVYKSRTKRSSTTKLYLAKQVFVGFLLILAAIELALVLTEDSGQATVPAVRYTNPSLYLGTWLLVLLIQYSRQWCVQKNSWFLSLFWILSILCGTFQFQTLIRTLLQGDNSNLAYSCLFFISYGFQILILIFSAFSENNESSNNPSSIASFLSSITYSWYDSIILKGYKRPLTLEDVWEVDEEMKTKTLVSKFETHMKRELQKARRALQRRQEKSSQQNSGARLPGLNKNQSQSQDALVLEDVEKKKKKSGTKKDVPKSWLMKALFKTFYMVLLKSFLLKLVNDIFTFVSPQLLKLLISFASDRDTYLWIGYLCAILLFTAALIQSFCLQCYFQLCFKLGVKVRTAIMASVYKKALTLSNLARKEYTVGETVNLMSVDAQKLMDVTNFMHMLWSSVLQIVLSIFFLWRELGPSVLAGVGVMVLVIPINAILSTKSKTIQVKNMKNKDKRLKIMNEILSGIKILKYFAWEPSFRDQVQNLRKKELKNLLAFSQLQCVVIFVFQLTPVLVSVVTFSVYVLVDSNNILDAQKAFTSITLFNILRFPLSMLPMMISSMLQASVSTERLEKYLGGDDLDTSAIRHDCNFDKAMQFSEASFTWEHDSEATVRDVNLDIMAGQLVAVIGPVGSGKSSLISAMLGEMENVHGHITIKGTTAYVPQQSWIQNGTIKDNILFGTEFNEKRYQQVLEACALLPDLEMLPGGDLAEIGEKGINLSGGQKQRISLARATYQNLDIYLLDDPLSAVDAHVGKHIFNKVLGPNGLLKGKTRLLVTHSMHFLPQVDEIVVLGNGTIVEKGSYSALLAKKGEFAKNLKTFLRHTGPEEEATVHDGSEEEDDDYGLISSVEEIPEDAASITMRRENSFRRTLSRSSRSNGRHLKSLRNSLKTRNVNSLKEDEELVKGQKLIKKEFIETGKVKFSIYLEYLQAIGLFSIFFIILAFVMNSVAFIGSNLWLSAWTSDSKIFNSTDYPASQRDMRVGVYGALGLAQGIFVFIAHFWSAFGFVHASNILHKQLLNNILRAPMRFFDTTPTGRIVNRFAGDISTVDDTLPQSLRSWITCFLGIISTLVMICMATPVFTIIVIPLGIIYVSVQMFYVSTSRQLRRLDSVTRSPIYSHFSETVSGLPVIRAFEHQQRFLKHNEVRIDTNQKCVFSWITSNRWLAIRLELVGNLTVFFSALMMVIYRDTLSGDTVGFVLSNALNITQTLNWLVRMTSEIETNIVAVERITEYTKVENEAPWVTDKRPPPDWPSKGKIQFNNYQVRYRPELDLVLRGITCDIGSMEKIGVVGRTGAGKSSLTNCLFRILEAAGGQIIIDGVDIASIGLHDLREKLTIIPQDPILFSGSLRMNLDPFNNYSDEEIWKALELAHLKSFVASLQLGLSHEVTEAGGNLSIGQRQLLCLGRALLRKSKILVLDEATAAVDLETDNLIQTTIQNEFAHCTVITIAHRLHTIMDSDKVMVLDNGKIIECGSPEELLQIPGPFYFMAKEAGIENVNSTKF

Cytochrome P450 2C9 = Cytochrome P450 2C9 (Homo sapiens, UniProt P11712); test: Inhibition of human CYP2C9 at 50 uM; format: ADME
Chain of Cytochrome P450 2C9 (P11712 whole entry): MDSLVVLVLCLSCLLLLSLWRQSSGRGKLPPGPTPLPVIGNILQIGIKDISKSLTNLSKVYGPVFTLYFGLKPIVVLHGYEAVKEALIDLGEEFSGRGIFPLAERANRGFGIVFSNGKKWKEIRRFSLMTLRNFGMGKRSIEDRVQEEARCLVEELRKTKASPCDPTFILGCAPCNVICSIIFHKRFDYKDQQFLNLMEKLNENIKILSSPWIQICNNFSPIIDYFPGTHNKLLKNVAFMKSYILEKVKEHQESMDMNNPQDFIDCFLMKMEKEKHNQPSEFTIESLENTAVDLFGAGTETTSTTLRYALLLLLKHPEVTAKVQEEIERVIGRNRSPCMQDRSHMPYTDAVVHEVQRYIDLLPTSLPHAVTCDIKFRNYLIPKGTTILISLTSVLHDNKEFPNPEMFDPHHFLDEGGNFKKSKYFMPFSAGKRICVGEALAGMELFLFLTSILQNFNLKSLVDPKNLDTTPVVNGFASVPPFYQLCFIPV

Staphylococcus aureus [12] = test: Antimicrobial activity against 2 times drug resistance selected Staphylococcus aureus ARC1692-1F by broth microdilution/CLSI method; format: functional
Staphylococcus aureus [13] = test: Ratio of MIC for 2 times drug resistance selected Staphylococcus aureus ARC1692-1F to MIC for Staphylococcus aureus ARC1692; format: functional
[14] = Selectivity ratio for human topoisomerase 2 alpha to bacterial type 2 topoisomerase
Haemophilus influenzae = test: Antimicrobial activity against Haemophilus influenzae by broth microdilution/CLSI method; format: functional; details: Haemophilus influenzae; read-out: MIC
Staphylococcus aureus [15] = test: Antimicrobial activity against Staphylococcus aureus ARC2398 by broth microdilution/CLSI method; format: functional
Mus musculus = test: fAUC in methicillin-sensitive Staphylococcus aureus ARC516 infected in neutropenic CD1 mouse thigh model at 30 mg/kg, ip q24; format: ADME, organism-based; parameters: dose 30 mg/kg, route intraperitoneal; details: in vivo
Staphylococcus aureus [16] = test: Antimicrobial activity against 2 times drug resistance selected Staphylococcus aureus ARC516-2F by broth microdilution/CLSI method; format: functional
Staphylococcus aureus [17] = test: Ratio of MIC for 2 times drug resistance selected Staphylococcus aureus ARC2381-2F to MIC for Staphylococcus aureus ARC2381; format: functional

Question: With COC[C@H](C)NC(=O)c1nc(N2CC[C@@H](NC(=O)c3[nH]c(C)c(Cl)c3Cl)[C@@H](OC)C2)sc1C(=O)O [AZD-5099] as the compound, how does the MIC90 (Enterococcus faecalis) read?
Answer: 0.015 µg/mL (≈ 0.0273 µM)

Question: And the pKa [1]?
Answer: 4.2

Question: And the MIC (Staphylococcus aureus [2])?
Answer: 0.13 µg/mL (≈ 0.237 µM)

Question: What about the bioavailability [3] of the same compound?
Answer: 100%

Question: What about the bioavailability [4] of the same compound?
Answer: 81%

Question: And the clearance [5]?
Answer: 2.1 mL/min/kg

Question: What about the Ratio (Staphylococcus aureus [6]) of the same compound?
Answer: 8

Question: And the clearance [7]?
Answer: 14 mL/min/kg

Question: What about the EC50 [8] of the same compound?
Answer: > 200 µM

Question: What about the Ratio (Staphylococcus aureus [9]) of the same compound?
Answer: 8

Question: What about the MIC (Streptococcus pyogenes) of the same compound?
Answer: 0.014 µg/mL (≈ 0.0255 µM)

Question: What about the Ratio (Staphylococcus aureus [10]) of the same compound?
Answer: 16

Question: What about the “inhibition (INH)” value (Cytochrome P450 1A2) of the same compound?
Answer: Not Active

Question: And the MIC (Streptococcus pneumoniae)?
Answer: 0.016 µg/mL (≈ 0.0292 µM)

Question: And the “inhibition (INH)” value (Cytochrome P450 3A4)?
Answer: Not Active

Question: And the EC50 [11]?
Answer: > 200 µM

Question: And the “inhibition (INH)” value (Cytochrome P450 2C9)?
Answer: Not Active

Question: What about the MIC (Staphylococcus aureus [12]) of the same compound?
Answer: 0.5 µg/mL (≈ 0.912 µM)

Question: What about the Ratio (Staphylococcus aureus [13]) of the same compound?
Answer: 8

Question: And the Selectivity ratio [14]?
Answer: 10000

Question: And the MIC (Haemophilus influenzae)?
Answer: 0.13 µg/mL (≈ 0.237 µM)

Question: What about the MIC (Staphylococcus aureus [15]) of the same compound?
Answer: 0.03 µg/mL (≈ 0.0547 µM)

Question: And the fAUC (Mus musculus)?
Answer: 5.45 µg·h/mL

Question: And the MIC (Staphylococcus aureus [16])?
Answer: 0.25 µg/mL (≈ 0.456 µM)

Question: And the Ratio (Staphylococcus aureus [17])?
Answer: 8
